Results taken from patent US20230227447A1, “BENZYLAMINE DERIVATIVES AS DDRS INHIBITORS” (CHIESI FARMACEUTICI S.P.A., priority 2020, published 2023).

How the values were obtained:
[1] = biological target: DDR1 (Homo sapiens, UniProt Q08345); assay: DDR1 binding assay (LanthaScreen Europium Kinase Binding assay); set-up: purchased Carna Biosciences; details: 5 nM DDR1, 20 nM Kinase Tracer 178, 1 hour at room temperature; Ki from IC50 by Cheng-Prusoff
Protocol: (§1) DDR1 and DDR2 binding assays were performed using Life Technologies LanthaScreen™ Europium Kinase Binding assay. The compounds were incubated with 5 nM DDR1 (Carna Biosciences) or 5 nM DDR2 (Life Technologies) for 1 hour at room temperature in white 384-well OptiPlate (PerkinElmer), containing 20 nM or 10 nM Kinase Tracer 178 respectively and 2 nM Europium labelled anti-GST antibody (Life Technologies) in assay buffer (50 mM HEPES pH 7.5, 10 mM MgCl2, 1 mM EGTA and 0.01% BRIJ35).
(§2) The ratio of fluorescence emission 665 nm/615 nm after excitation at 340 nm was obtained using the Tecan Spark 20M plate reader. IC50 values were determined in GraphPad Prism 7.0 software, using 4 parameter model: log(inhibitor) vs. response. IC50 values were converted in Ki using the Cheng-Prusoff equation (Ki=IC50/(1+[Tracer]/Kd).

[2] = biological target: T1, DDR2 (Homo sapiens, UniProt Q16832); assay: DDR2 binding assay (LanthaScreen Europium Kinase Binding assay); set-up: purchased Life Technologies; details: 5 nM DDR2, 10 nM Kinase Tracer 178, 1 hour at room temperature; Ki from IC50 by Cheng-Prusoff
T1 sequence (Q16832 22-855): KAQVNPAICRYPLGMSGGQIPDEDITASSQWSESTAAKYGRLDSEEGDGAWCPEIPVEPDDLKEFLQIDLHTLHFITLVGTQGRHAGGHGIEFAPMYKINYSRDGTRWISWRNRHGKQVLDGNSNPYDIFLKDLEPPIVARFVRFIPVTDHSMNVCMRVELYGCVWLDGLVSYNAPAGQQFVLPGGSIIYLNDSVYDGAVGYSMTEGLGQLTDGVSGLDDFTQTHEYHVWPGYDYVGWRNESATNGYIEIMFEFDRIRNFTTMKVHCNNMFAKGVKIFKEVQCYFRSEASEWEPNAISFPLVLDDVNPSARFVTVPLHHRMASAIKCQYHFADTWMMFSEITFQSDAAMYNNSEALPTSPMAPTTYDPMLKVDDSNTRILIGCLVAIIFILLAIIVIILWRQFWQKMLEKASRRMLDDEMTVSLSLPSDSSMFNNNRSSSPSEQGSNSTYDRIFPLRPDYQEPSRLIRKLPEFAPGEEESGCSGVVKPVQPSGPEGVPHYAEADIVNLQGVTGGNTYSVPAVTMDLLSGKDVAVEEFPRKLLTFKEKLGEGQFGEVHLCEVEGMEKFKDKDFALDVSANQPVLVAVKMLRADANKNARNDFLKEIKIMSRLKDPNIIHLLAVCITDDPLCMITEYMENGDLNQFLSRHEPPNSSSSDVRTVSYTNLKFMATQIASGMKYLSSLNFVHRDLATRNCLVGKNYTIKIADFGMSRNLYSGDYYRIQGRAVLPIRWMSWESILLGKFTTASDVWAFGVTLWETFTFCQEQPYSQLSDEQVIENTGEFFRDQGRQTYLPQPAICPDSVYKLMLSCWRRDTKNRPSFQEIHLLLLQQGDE
Protocol: as §1, §2

Sequence of DDR1 (Q08345 19-913): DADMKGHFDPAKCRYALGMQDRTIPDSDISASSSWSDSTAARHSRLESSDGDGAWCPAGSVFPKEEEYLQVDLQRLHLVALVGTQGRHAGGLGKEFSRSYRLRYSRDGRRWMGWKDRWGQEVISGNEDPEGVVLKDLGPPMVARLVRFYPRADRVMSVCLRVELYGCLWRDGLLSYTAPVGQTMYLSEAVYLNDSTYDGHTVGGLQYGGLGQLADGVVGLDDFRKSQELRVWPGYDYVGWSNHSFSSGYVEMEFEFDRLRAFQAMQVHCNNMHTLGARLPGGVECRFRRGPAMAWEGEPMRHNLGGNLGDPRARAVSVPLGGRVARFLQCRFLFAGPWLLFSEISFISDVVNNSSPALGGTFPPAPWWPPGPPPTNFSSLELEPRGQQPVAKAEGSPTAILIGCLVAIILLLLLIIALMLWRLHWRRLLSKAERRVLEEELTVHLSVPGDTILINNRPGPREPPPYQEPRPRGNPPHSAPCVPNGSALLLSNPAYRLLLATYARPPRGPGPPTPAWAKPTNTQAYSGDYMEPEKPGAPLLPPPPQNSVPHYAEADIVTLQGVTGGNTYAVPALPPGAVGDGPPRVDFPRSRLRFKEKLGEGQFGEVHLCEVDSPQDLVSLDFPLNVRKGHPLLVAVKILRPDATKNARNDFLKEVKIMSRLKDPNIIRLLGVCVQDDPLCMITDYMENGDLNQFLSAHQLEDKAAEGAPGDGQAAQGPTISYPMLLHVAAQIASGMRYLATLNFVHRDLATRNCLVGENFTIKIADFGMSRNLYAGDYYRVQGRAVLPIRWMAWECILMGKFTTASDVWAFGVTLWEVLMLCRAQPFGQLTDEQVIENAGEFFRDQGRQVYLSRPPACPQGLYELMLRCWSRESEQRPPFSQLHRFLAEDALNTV

Compound	Ki [1] [nM]	Ki [2] [nM]
Cc1cn(-c2cc(NC(=O)c3ccc(C)c(CNc4ccc5ncsc5c4)c3)cc(C(F)(F)F)c2)cn1 [Example 3, 3-((benzo[d]thiazol-6-ylamino)methyl)-4-methyl-N-(3-(4-methyl-1H-imidazol-1-yl)-5-(trifluoromethyl)phenyl)benzamide]	30 to 300	30 to 300
Cc1cn(-c2cc(NC(=O)c3ccc(C)c(CNc4ccc5[nH]ncc5c4)c3)cc(C(F)(F)F)c2)cn1 [Example 4, 3-(((1H-indazol-5-yl)amino)methyl)-4-methyl-N-(3-(4-methyl-1H-imidazol-1-yl)-5-(trifluoromethyl)phenyl)benzamide]	30 to 300	30 to 300
Cc1cn(-c2cc(NC(=O)c3ccc(C)c(CNC4CNc5ccnn5C4)c3)cc(C(F)(F)F)c2)cn1 (stereo not shown) [Example 6, 4-methyl-N-(3-(4-methyl-1H-imidazol-1-yl)-5-(trifluoromethyl)phenyl)-3-(((4,5,6,7-tetrahydropyrazolo[1,5-a]pyrimidin-6-yl)amino)methyl)benzamide]	300 to 1000	300 to 1000
Cc1cn(-c2cc(NC(=O)c3ccc(C)c(CNc4ccnc(C#N)c4)c3)cc(C(F)(F)F)c2)cn1 [Example 7, 3-(((2-cyanopyridin-4-yl)amino)methyl)-4-methyl-N-(3-(4-methyl-1H-imidazol-1-yl)-5-(trifluoromethyl)phenyl)benzamide]	30 to 300	30 to 300
Cc1cn(-c2cc(NC(=O)c3ccc(C)c(CNc4ccc(C#N)cn4)c3)cc(C(F)(F)F)c2)cn1 [Example 8, 3-(((5-cyanopyridin-2-yl)amino)methyl)-4-methyl-N-(3-(4-methyl-1H-imidazol-1-yl)-5-(trifluoromethyl)phenyl)benzamide]	30 to 300	30 to 300
Cc1ccc(NC(=O)c2cc(CN3CCN(C)CC3)cc(C(F)(F)F)c2)cc1CNCc1cncnc1 [Example 11, N-(4-methyl-3-(((pyrimidin-5-ylmethyl)amino)methyl)phenyl)-3-((4-methylpiperazin-1-yl)methyl)-5-(trifluoromethyl)benzamide]	300 to 1000	300 to 1000
CNC(=O)c1cc(CNCc2cc(NC(=O)c3cc(CN4CCN(C)CC4)cc(C(F)(F)F)c3)ccc2C)ccn1 [Example 14, N-methyl-4-(((2-methyl-5-(3-((4-methylpiperazin-1-yl)methyl)-5-(trifluoromethyl)benzamido)benzyl)amino)methyl)picolinamide]	30 to 300	30 to 300
Cc1ccc(NC(=O)c2cc(CN3CCN(C)CC3)cc(C(F)(F)F)c2)cc1CNCc1cnc2[nH]ccc2c1 [Example 15, N-(3-((((1H-pyrrolo[2,3-b]pyridin-5-yl)methyl)amino)methyl)-4-methylphenyl)-3-((4-methylpiperazin-1-yl)methyl)-5-(trifluoromethyl)benzamide]	30 to 300	30 to 300
CC(C)c1ccc(C(=O)Nc2cc(CN3CCN(C)CC3)cc(C(F)(F)F)c2)cc1CNc1cnc2ccnn2c1 [Example 16, 4-isopropyl-N-(3-((4-methylpiperazin-1-yl)methyl)-5-(trifluoromethyl)phenyl)-3-((pyrazolo[1,5-a]pyrimidin-6-ylamino)methyl)benzamide]	30 to 300	30 to 300
CCCc1ccc(C(=O)Nc2cc(CN3CCN(C)CC3)cc(C(F)(F)F)c2)cc1CNc1cnc2ccnn2c1 [Example 17, N-(3-((4-methylpiperazin-1-yl)methyl)-5-(trifluoromethyl)phenyl)-4-propyl-3-((pyrazolo[1,5-a]pyrimidin-6-ylamino)methyl)benzamide]	30 to 300	30 to 300
Cc1ccc(C(=O)Nc2cc(CN3CCN(C)CC3)cc(C(F)(F)F)c2)cc1CNC(=O)c1cnc2ccccn12 [Example 21, N-(2-methyl-5-((3-((4-methylpiperazin-1-yl)methyl)-5-(trifluoromethyl)phenyl)carbamoyl)benzyl)imidazo[1,2-a]pyridine-3-carboxamide]	< 30	< 30

Results, then the molecule that gave them:

Ki [1] [nM]	Ki [2] [nM]	Compound
< 30	< 30	Cc1cn(-c2cc(NC(=O)c3ccc(C)c(CNc4cnc5ccnn5c4)c3)cc(C(F)(F)F)c2)cn1 [Example 1, 4-methyl-N-(3-(4-methyl-1H-imidazol-1-yl)-5-(trifluoromethyl)phenyl)-3-((pyrazolo[1,5-a]pyrimidin-6-ylamino)methyl)benzamide]
< 30	300 to 1000	CCN(Cc1cc(C(=O)Nc2cc(-n3cnc(C)c3)cc(C(F)(F)F)c2)ccc1C)c1cnc2ccnn2c1 [Example 2, 3-((ethyl(pyrazolo[1,5-a]pyrimidin-6-yl)amino)methyl)-4-methyl-N-(3-(4-methyl-1H-imidazol-1-yl)-5-(trifluoromethyl)phenyl)benzamide]
< 30	< 30	Cc1cn(-c2cc(NC(=O)c3ccc(C)c(CNc4cnc5[nH]ccc5c4)c3)cc(C(F)(F)F)c2)cn1 [Example 5, 3-(((1H-pyrrolo[2,3-b]pyridin-5-yl)amino)methyl)-4-methyl-N-(3-(4-methyl-1H-imidazol-1-yl)-5-(trifluoromethyl)phenyl)benzamide]
< 30	< 30	Cc1ccc(NC(=O)c2cc(CN3CCN(C)CC3)cc(C(F)(F)F)c2)cc1CNc1cncnc1 [Example 9, N-(4-methyl-3-((pyrimidin-5-ylamino)methyl)phenyl)-3-((4-methylpiperazin-1-yl)methyl)-5-(trifluoromethyl)benzamide]
< 30	30 to 300	CNC(=O)c1cc(NCc2cc(NC(=O)c3cc(CN4CCN(C)CC4)cc(C(F)(F)F)c3)ccc2C)ccn1 [Example 10, N-methyl-4-((2-methyl-5-(3-((4-methylpiperazin-1-yl)methyl)-5-(trifluoromethyl)benzamido)benzyl)amino)picolinamide]
< 30	30 to 300	Cc1ccc(NC(=O)c2cc(CN3CCN(C)CC3)cc(C(F)(F)F)c2)cc1CN(Cc1cnc2ccccn12)Cc1cnc2ccccn12 [Example 12, N-(3-((bis(imidazo[1,2-a]pyridin-3-ylmethyl)amino)methyl)-4-methylphenyl)-3-((4-methylpiperazin-1-yl)methyl)-5-(trifluoromethyl)benzamide]
< 30	< 30	Cc1ccc(NC(=O)c2cc(CN3CCN(C)CC3)cc(C(F)(F)F)c2)cc1CNCc1cnc2ccccn12 [Example 13, N-(3-(((imidazo[1,2-a]pyridin-3-ylmethyl)amino)methyl)-4-methylphenyl)-3-((4-methylpiperazin-1-yl)methyl)-5-(trifluoromethyl)benzamide]
< 30	30 to 300	Cc1ccc(C(=O)Nc2cc(CN3CCN(C)CC3)cc(C(F)(F)F)c2)cc1CNc1cnc2ccnn2c1 [Example 18, 4-methyl-N-(3-((4-methylpiperazin-1-yl)methyl)-5-(trifluoromethyl)phenyl)-3-((pyrazolo[1,5-a]pyrimidin-6-ylamino)methyl)benzamide]
< 30	< 30	Cc1ccc(C(=O)Nc2cc(CN3CCN(C)CC3)cc(C(F)(F)F)c2)cc1CNc1cncnc1 [Example 19, 4-methyl-N-(3-((4-methylpiperazin-1-yl)methyl)-5-(trifluoromethyl)phenyl)-3-((pyrimidin-5-ylamino)methyl)benzamide]
